Species: Rattus norvegicus
Assay: Open TG-GATES - Regimen: Daily Repeat
Type: toxicity, organism-based, Sprague-Dawley
Set-up: regimen Daily Repeat, gender Male, age 6 weeks
Settings: in vivo, po, 30 mg/kg, […], route gavage, dose level Middle; for KIDNEY_L / KIDNEY_R / KIDNEY_TOTAL: tissue Kidney; for LIVER: tissue Liver; for A/G / ALP / ALT / AST / BUN / CRE / Ca / Cl / DBIL / GLC / IP / K / LDH / Na / PL / RALB / TBIL / TC / TG / TP / gamma-GTP: tissue Plasma

## OCCOCCN1CCN(C(c2ccccc2)c2ccc(Cl)cc2)CC1 (stereo unspecified) [HYDROXYZINE]
Tissue Blood, time 28 day
  Lym: 80.6%
  MCH: 19.9 pg
  MCHC: 34.5%
  MCV: 57.5 fL
  Mono: 2%
  Neu: 14.8%
  PT: 15.9 s
  Plat: 91.9 x10_4/uL
  RBC: 792.8 x10_4/ul
  Ret: 2.3%
  WBC: 101.1 x10_2/uL
Time 7 day
  KIDNEY_L: 1.1 g
  KIDNEY_R: 1.1 g
  KIDNEY_TOTAL: 2.3 g
  LIVER: 14 g
  A/G: 0.8
  ALP: 1827.8 IU/L
  ALT: 37.6 IU/L
  AST: 64.2 IU/L
  BUN: 18 mg/dL
  CRE: 0.2 mg/dL
  Ca: 11 mg/dL
  Cl: 104.8 meq/L
  DBIL: 0.018 mg/dL
  GLC: 192.8 mg/dL
  IP: 7.8 mg/dL
  K: 4.3 meq/L
  LDH: 58.4 IU/L
  Na: 142 meq/L
  PL: 158 mg/dL
  RALB: 2.7 g/dL
  TBIL: 0.05 mg/dL
  TC: 78 mg/dL
  TG: 120.8 mg/dL
  TP: 5.9 g/dL
  gamma-GTP: 0.6 IU/L
Time 14 day
  KIDNEY_L: 1.3 g
  KIDNEY_R: 1.3 g
  KIDNEY_TOTAL: 2.7 g
  LIVER: 16.6 g
  A/G: 0.8
  ALP: 1412.8 IU/L
  ALT: 37.6 IU/L
  AST: 63.6 IU/L
  BUN: 17.4 mg/dL
  CRE: 0.2 mg/dL
  Ca: 10.7 mg/dL
  Cl: 103.4 meq/L
  DBIL: 0.02 mg/dL
  GLC: 192.4 mg/dL
  IP: 7.6 mg/dL
  K: 4.1 meq/L
  LDH: 82.6 IU/L
  Na: 141.6 meq/L
  PL: 163 mg/dL
  RALB: 2.7 g/dL
  TBIL: 0.05 mg/dL
  TC: 81.8 mg/dL
  TG: 142 mg/dL
  TP: 6 g/dL
  gamma-GTP: 0.6 IU/L
Time 28 day
  KIDNEY_L: 1.5 g
  KIDNEY_R: 1.4 g
  KIDNEY_TOTAL: 2.9 g
  LIVER: 16.7 g
  A/G: 0.8
  ALP: 1021.6 IU/L
  ALT: 37.2 IU/L
  AST: 59.4 IU/L
  BUN: 17.8 mg/dL
  CRE: 0.2 mg/dL
  Ca: 10.6 mg/dL
  Cl: 105 meq/L
  DBIL: 0.014 mg/dL
  GLC: 191.2 mg/dL
  IP: 6.7 mg/dL
  K: 4 meq/L
  LDH: 52 IU/L
  Na: 142.8 meq/L
  PL: 156.6 mg/dL
  RALB: 2.8 g/dL
  TBIL: 0.046 mg/dL
  TC: 77.4 mg/dL
  TG: 123 mg/dL
  TP: 6.2 g/dL
  gamma-GTP: 0.6 IU/L

Source: ChEMBL document CHEMBL3885861, “Open TG-GATES”
